“Also recorded” adds a separate entry of the source. Where no end group is shown, it is not given here. [ ]: non-standard residue; d: D form. hCys = N[C@@H](CCS)C(=O)O
Legend:
[1] = test system: neonatal, human fibroblasts; assay: SU-ECM basement membrane invasion by fibroblasts; assay type: cell-based; details: with or without serum as stated
Source text: Since, during wound reepithelialization, keratinocytes migrate through the connective tissue of the provisional matrix to “wall off” portions of the wound, as well as through the adjacent stroma, it is not surprising that they are also stimulated to migrate through the matrix of SU-ECM invasion substrates by the PHSRN (SEQ ID NO: 1) sequence. […]
(§1) Invasion assays were coded and scored blindly by microscopic examination under phase contrast at 200- and 400-fold magnification. Each cell contacting an SU-ECM was scored for its position relative to the exterior or interior surfaces. […] The minimum viability of the cells in each assay was always ascertained at the time of assay by determining the fraction of spread, adherent cells on the bottom of each well scored.
(§2) An invasion frequency is defined as the fraction of cells in contact with basement membranes which were located in their interiors at the time of assay. […] Invasion frequencies were determined multiple times for each cell type assayed. For each type of cell assayed the mean and standard deviation of the invasion frequencies were calculated. […]

[2] = test system: SUM-52 PE breast cancer cells; assay: SU-ECM invasion assay, SUM-52 PE breast cancer cells; assay type: cell-based, human; details: SUM-52 cells
Experimental: (§3) Adult Strongylocentrotus purpuratus sea urchins were obtained from Pacific BioMarine, and their embryos were cultured to the early pluteus stage in artificial sea water at 15° C. SU-ECM were prepared from them by treatment with nonionic detergent and strerilized by dilution in the appropriate media.
(§4) Cells were harvested by rinsing in Hanks' balanced salt solution, followed by brief treatment with 0.25% trypsin, 0.02% EDTA, and pelleting and resuspension in the appropriate medium with or without 5% FCS at a density of about 50,000 cells per ml. […]
as §1, §2

[3] = test system: DU-145 prostate cancer cells; assay: SU-ECM invasion assay, DU-145 prostate cancer cells; assay type: cell-based, human; details: DU-145 cells
Experimental: as §3, §4, §1, §2

keratinocytes = assay: SU-ECM invasion by keratinocytes; assay type: cell-based; details: serum-free SU-ECM
Source text: Since, during wound reepithelialization, keratinocytes migrate through the connective tissue of the provisional matrix to “wall off” portions of the wound, as well as through the adjacent stroma, it is not surprising that they are also stimulated to migrate through the matrix of SU-ECM invasion substrates by the PHSRN (SEQ ID NO: 1) sequence. […] Recruitment of fibroblasts or monocytes/macrophages whose paracrine, regulatory effects on a variety of neighboring cells are required for the early stages of wound healing is contemplated as a highly efficient and effective way to stimulate the cascade of regulatory interactions involved in wound healing because these cells will secrete the active factors or cytokines in the correct temporal sequences and spatial locations to ensure their optimal activities. Because it efficiently induces keratinocyte migration through the extracellular matrix in vitro, the PHSRN (SEQ ID NO: 1) peptide is also likely to stimulate wound reepithelialization directly. The use of the PHSRN (SEQ ID NO: 1) peptide or structurally related molecules according to the present invention is to stimulate the entry of cells such as fibroblasts and monocyte/macrophages into the provisional matrix of a wound, so that the entering cells themselves secrete the factors and cytokines active in inducing or potentiating wound healing. […]

[4] = test system: DU-145 metastatic prostate cancer cells; assay: Invasion of fibronectin-depleted Matrigel by DU-145 cells; assay type: cell-based, human; details: 0.5 μl/ml peptide added to gelatin-panned Matrigel
Experimental: This example describes a purification approach for removal of plasma fibronectin (and/or cellular fibronectin) from a substrate (Matrigel). In this example, removal was attempted by successive panning on gelatin. Eight wells of 24-well plate were coated with a 2% gelatin solution (the gelatin was obtained from Becton Dickinson Labware, Catalog #11868). The wells were filled with the gelatin solution which had been heated to 50° C. and incubated for 3 minutes. Then the solution was removed and the wells were allowed to air dry. Following drying, the wells were thoroughly rinsed with ddH2O followed by two rinses with PBS. The plates were again allowed to dry; thereafter they were stored at −20° C. until use. Matrigel was thawed on ice and then added to one of the wells of a gelatin-coated plate (between 800 μl and 1 ml of Matrigel was added to a well of a 24-well plate). The plate was placed in a bucket of ice in a […] room on an orbital shaker where the Matrigel was incubated in the well for two hours (although overnight incubation can be used). Following the incubation, the Matrigel was moved from the first well to a second well and then incubated for two hours under the same conditions. This process was repeated until the Matrigel had been incubated on all eight wells of the gelatin-coated plate.
Following the depletion of the Matrigel, it was collected in Eppendorf tubes. […]

[5] = test system: normal, neonatal fibroblasts; assay: Invasion of gelatin- and antibody-depleted Matrigel by fibroblasts; assay type: cell-based; details: gelatin plus antibody panned Matrigel
Experimental: Anti-fibronectin antibody-coated wells: Wells of a 24-well plate were coated with an anti-fibronectin antibody. A mouse monoclonal antibody to human fibronectin was obtained from Oncogene Science (Catalog #CP13). Each well was incubated with 1 ml of antibody at a concentration of 30 μl/ml for 2 hours at room temperature. Each well was then incubated with a solution of 3% BSA in PBS for 2 hours at room temperature. Following the two incubation periods, the wells were thoroughly washed with PBS and stored at −20° C. until use.
Depleting Matrigel of Fibronectin: Matrigel was panned over eight gelatin-coated wells (as described above in Example 2) to remove most of the fibronectin and its fragments. Thereafter, the Matrigel was placed in the antibody-coated wells to remove any remaining fragments of fibronectin which contain the cell-binding domain but not the gelatin-binding domain. The Matrigel was incubated in an ice bucket on an orbital shaker at 4° C. for 2 hours. Once the Matrigel was depleted, it was collected in Eppendorf tubes. The firbonectin-depleted Matrigel was plated on a 48-well plate (150 μl/well), sterilized under a UV light for 10 minutes and incubated at 37° C. overnight. The Matrigel formed a gel and the following day, cells were added to the wells. […]

MatLyLu (MLL) cells = assay: SU-ECM invasion assay, rat MatLyLu (MLL) prostate carcinoma cells; assay type: cell-based; details: 10% FCS, varying concentrations
Experimental: as §3, with “media. […]” for “media.”
as §1, §2

metastatic disease = details: human, in vivo
Experimental: Livant et al., “The PHSCN Sequence As An Anti-Invasive For Human Prostate Carcinoma Cells And As An Anti-Tumorigenic And Anti-Metastatic Agent For Rat Prostate Cancer” Cancer Research 60:309-320 (2000). […] In another embodiment, however, PHSCN (SEQ ID NO:86) peptide may also induce apoptosis. Furthermore, thrice-weekly PHSCN (SEQ ID NO:86) peptide intravenous doses (0.1 to 0.5 mg/kg) prevent cancer progression in metastatic ovarian cancer and metastatic prostate cancer patients in the Phase I clinical trial, for over a 6 to 10 month period.

[6] = test system: DU 145 human prostate carcinoma; details: mouse, in vivo; cited from earlier work
[7] = target: T1, immobilized α5β1 integrin (UniProt P08648 42-1049; P05556 21-798); assay: saturation binding of PHSCNGGK(biotin) to immobilized α5β1 integrin, read as optical density at 490 nm (FIG. 11)
T1 construct: also called α5β1 integrin receptor; α5β1 integrin fibronectin receptor
T1 sequence (P08648 42-1049, chain 1 of 2): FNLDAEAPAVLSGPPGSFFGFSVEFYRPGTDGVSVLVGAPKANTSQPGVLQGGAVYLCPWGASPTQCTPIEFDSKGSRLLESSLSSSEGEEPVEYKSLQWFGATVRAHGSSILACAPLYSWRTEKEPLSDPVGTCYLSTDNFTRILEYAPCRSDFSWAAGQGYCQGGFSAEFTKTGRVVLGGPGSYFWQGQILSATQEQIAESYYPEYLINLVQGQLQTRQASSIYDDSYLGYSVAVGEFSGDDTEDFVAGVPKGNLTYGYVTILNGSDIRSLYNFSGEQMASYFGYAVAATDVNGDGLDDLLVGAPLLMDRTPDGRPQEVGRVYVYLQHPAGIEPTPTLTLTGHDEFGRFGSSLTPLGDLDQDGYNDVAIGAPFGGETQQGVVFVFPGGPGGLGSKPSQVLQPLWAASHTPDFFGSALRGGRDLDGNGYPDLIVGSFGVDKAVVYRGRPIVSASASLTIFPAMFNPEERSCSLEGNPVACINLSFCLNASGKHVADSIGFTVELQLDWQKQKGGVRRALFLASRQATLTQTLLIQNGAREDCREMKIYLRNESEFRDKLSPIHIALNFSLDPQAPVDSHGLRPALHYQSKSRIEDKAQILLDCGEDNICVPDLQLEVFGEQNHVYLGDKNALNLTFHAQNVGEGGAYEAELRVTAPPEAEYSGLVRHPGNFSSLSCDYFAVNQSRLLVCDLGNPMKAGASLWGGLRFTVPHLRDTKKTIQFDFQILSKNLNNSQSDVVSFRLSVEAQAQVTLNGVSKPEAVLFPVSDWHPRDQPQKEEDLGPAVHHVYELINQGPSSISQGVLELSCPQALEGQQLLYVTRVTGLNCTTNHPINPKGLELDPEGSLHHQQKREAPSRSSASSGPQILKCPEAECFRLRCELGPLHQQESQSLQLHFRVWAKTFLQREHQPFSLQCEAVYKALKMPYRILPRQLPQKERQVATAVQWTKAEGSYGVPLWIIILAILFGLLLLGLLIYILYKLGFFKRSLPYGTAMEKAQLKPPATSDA
T1 sequence (P05556 21-798, chain 2 of 2): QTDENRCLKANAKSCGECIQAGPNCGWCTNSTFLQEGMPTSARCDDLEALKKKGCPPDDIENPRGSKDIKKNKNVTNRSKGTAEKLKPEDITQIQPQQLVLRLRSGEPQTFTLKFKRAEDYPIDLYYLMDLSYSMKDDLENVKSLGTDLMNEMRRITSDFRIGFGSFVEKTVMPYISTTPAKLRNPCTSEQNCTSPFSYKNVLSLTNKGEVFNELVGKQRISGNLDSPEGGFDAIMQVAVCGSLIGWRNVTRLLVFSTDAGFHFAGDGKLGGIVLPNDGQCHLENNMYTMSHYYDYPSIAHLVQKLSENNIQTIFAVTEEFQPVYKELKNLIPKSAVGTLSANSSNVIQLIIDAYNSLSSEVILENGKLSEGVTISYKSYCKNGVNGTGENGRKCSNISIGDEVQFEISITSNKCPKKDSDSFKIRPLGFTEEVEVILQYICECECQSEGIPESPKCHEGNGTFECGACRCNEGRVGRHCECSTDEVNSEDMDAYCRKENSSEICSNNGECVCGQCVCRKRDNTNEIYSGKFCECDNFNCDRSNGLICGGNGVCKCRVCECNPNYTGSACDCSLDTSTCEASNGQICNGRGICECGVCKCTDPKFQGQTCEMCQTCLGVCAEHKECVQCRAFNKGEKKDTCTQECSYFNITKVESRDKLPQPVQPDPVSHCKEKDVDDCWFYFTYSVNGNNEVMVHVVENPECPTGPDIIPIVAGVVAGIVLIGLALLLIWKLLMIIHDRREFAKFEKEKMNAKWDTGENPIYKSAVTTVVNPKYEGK

Q: Which “fibroblast invasion of SU-ECM basement membranes” value [1] does the source give for “intact plasma fibronectin: purified bovine plasma fibronectin (Sigma)” here?
A: fails to stimulate fibroblast invasion

Q: Which “induction of invasion of SU-ECM” value [2] does the source give for Pro-His-Ser-Arg-Asn (PHSRN) here?
A: induced to invade the SU-ECM substrate

Q: What about the “induction of invasion of SU-ECM” value [3] of the same molecule?
A: induced to invade the SU-ECM substrate

Q: And the “fibroblast invasion of SU-ECM basement membranes” value [1]?
A: induced with the PHSRN (SEQ ID NO:1) peptide to invade serum-free SU-ECM

Q: And the keratinocyte invasion (keratinocytes)?
A: stimulate keratinocyte invasion of serum-free SU-ECM

Q: And the “DU-145 invasiveness on depleted Matrigel” value [4]?
A: sufficient to restore the full DU-145 invasiveness

Q: What about the “fibroblast invasiveness on depleted Matrigel” value [5] of the same molecule?
A: invasiveness of the fibroblasts could be induced

Q: Which “inhibition of serum-induced invasion” value (MatLyLu (MLL) cells) does the source give for “PHS(hC)N: homo-cysteine containing peptide (PHS[hCys]N)” here?
A: substantially inhibits invasion at lower concentrations; also recorded: completely inhibits invasion at higher concentrations

Q: Which results are given for “Ac-PHSCN-NH2 (N-terminus and C-terminus assumed) [PHSCN, Pro-His-Ser-Cys-Asn]”?
A: total treatment-emergent serious adverse events (metastatic disease): 11; tolerability of treated mice [6]: no obvious loss of vigor or difficulty in healing

Q: With Ac-PHSCNGG-{K(biotin)-NH2} (also: further groups not given here, also called biotinylated PHSCN peptide) [Ac-PHSCNGGK(biotin)-NH2] as the molecule, how does the Kd [7] read?
A: 272 nM
